The text below walks through data of patent US8952177B2 (Janssen Pharmaceutica NV, priority 2013, dated 2015).

The Ki is a measure of affinity in units of concentration, obtained from inhibition or displacement. The IC50 is the concentration that gives 50% inhibition.

SMILES strings stand for the structures. Counter-ions that a name gives are not always drawn. Like-named read-outs stand apart in the source and are kept apart here.

In one assay the target is human FLAP (Homo sapiens (Human), UniProt P20292). Description: FLAP binding assay (HTRF format). To be noted: read-out: FLAP Binding wild type HTRF Ki. As for the experimental part: The ability of the compounds of the present invention to treat a FLAP-mediated disease and/or disorder, or associated symptoms or complications thereof, was determined using the following procedures. Binding assay data represent the average value obtained from two different assay plates, with samples run in duplicate on each plate. Human whole blood assay data represent a single replicate on an assay plate using whole blood from at least one healthy donor.
Sequence of human FLAP (P20292 whole entry): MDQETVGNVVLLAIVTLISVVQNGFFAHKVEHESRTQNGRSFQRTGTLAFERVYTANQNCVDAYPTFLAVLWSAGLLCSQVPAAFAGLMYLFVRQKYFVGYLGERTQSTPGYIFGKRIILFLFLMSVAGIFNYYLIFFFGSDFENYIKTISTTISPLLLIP
The assay below is used to test the modulatory activity of compounds against FLAP. Human and mouse FLAP-encoding DNA was amplified by polymerase chain reaction and cloned into pFastBacl (Invitrogen) with a NH2-terminal 6-His tag for expression in Spodoptera frugiperda (Sf-9) cells. FLAP-containing membranes were prepared as was a FITC-labeled FLAP modulator (3-(3-(tert-butylthio)-1-(4-chlorobenzyl)-5-(quinolin-2-ylmethoxy)-1H-indol-2-yl)-2,2-dimethylpropanoic acid). The FLAP binding assay is performed in HTRF format (homogeneous time resolved fluorescence). […] The reaction is allowed to proceed for two hours after which the plate is read on an Envision plate reader in HTRF mode. Data are expressed as a HTRF ratio.
For human FLAP binding assays, data are analyzed with 3DX Explorer software. […] For analysis, data from multiple runs are averaged and each compound may be tested in 2 to 20 runs. Each run comprises two plates and each plate includes duplicates. Data from each plate is averaged and data are imported into 3DX. The data from multiple runs are aggregated as the average of duplicates of the calculated ratios in order to calculate Ki and IC50 values. Numbers in parentheses are the number of runs for the assay.
(Time-resolved FRET reads energy transfer from a long-lived donor to a nearby acceptor.)

For assay [1], the system named is leukotriene pathway in human whole blood (LTB4). Description: Human whole blood assay (LTB4 after calcium ionophore A23187 stimulation). It is filed as cell-based. Particulars: human whole blood diluted 1:1 in RPMI, 15 min pre-incubation, A23187 7 μg/mL for 30 min at 37° Celsius. In a few lines:
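Heparinised human whole blood, diluted 1:1 in RPMI, was preincubated with compound for 15 min at 37° C. before stimulation with A23187 (7 μg/mL) for 30 min. Plasma LTB4 was measured by immunoassay kit and IC50 obtained by 4-parameter fit; single replicate per plate, blood from at least one donor.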

[2] abbreviates: human FLAP-containing Sf-9 membranes, 25 nM HTRF ligand, 2 h, average of runs.

Take `Cc1cnc(COc2ccc3nc([C@H]4CCCC[C@H]4C(=O)O)n(Cc4c(F)cc(-c5ccc(C(F)(F)F)cc5)cc4F)c3c2)c(F)c1` (racemic) [Example 137, racemic cis-2-(1-((3,5-difluoro-4′-(trifluoromethyl)-[1,1′-biphenyl]-4-yl)methyl)-6-((3-fluoro-5-methylpyridin-2-yl)methoxy)-1H-benzo[d]imidazol-2-yl)cyclohexanecarboxylic acid]: the inhibition constant Ki at human FLAP (setting [2]) was found to be 0.66 nM. The IC50 in assay [1] (Homo sapiens) is 91 nM.
On the same counts, the results for `COc1cc(OC(F)(F)F)ccc1Cn1c([C@H]2CCCC[C@H]2C(=O)O)nc2ccc(OCc3ccn(C)n3)cc21` (racemic) [Example 84, racemic cis-2-{1-[2-Methoxy-4-(trifluoromethoxy)benzyl]-6-[(1-methyl-1H-pyrazol-3-yl)methoxy]-1H-benzimidazol-2-yl}cyclohexanecarboxylic acid] are 5.9 nM and 190 nM.
Take `Cc1cnc(COc2ccc3nc([C@@H]4CCCC[C@@H]4C(=O)O)n(Cc4ccc(N5CCC(C)CC5)cc4)c3c2)c(F)c1` (racemic) [Example 178, racemic cis-2-{6-[(3-Fluoro-5-methylpyridin-2-yl)methoxy]-1-[4-(4-methylpiperidin-1-yl)benzyl]-1H-benzimidazol-2-yl}cyclohexanecarboxylic acid]: the Ki at human FLAP (setting [2]) was 1.2 nM. The 50% inhibitory concentration (IC50) in assay [1] (Homo sapiens) is 47 nM.
The corresponding values for `Cn1ccc(COc2cc(F)c3nc([C@@H]4CCCC[C@@H]4C(=O)O)n(Cc4ccc(Br)cc4)c3c2)n1` (racemic) [Example 93, racemic cis-2-{1-(4-Bromobenzyl)-4-fluoro-6-[(1-methyl-1H-pyrazol-3-yl)methoxy]-1H-benzimidazol-2-yl}cyclohexanecarboxylic acid] are 1.1 nM and 550 nM.
With `Cc1ccc(Cn2c([C@@H]3CCCC[C@@H]3C(=O)O)nc3c(F)cc(OCc4ccn(C)n4)cc32)cc1` (racemic) [Example 97, racemic cis-2-{4-Fluoro-1-(4-methylbenzyl)-6-[(1-methyl-1H-pyrazol-3-yl)methoxy]-1H-benzimidazol-2-yl}cyclohexanecarboxylic acid as the HCl salt], the Ki on human FLAP (setting [2]) amounted to 7.5 nM. The IC50 in assay [1] (Homo sapiens) stood at 300 nM.
For `Cc1cc(Cn2c([C@@H]3CCCC[C@@H]3C(=O)O)nc3ccc(OCc4ccn(C)n4)cc32)ccc1OC(F)(F)F` (racemic) [Example 106, racemic cis-2-{6-[(1-Methyl-1H-pyrazol-3-yl)methoxy]-1-[3-methyl-4-(trifluoromethoxy)benzyl]-1H-benzimidazol-2-yl}cyclohexanecarboxylic acid as the HCl salt], the Ki at human FLAP (setting [2]) was found to be 5.4 nM. Also, the IC50 in assay [1] (Homo sapiens) came out at 1160 nM.
For the compound `CCC(CC)(Cc1nc2ccc(OCc3ccc(C)cn3)cc2n1Cc1cccc(-c2ccc(C(F)(F)F)cc2)c1)C(=O)O` [Example 149, 2-ethyl-2-((6-((5-methylpyridin-2-yl)methoxy)-1-((4′-(trifluoromethyl)-[1,1′-biphenyl]-3-yl)methyl)-1H-benzo[d]imidazol-2-yl)methyl)butanoic acid], the inhibition constant (Ki) on human FLAP (setting [2]) was 36 nM. In assay [1] (Homo sapiens), the IC50 came to 3880 nM.
Regarding `CCC(CC)(Cc1nc2c(F)cc(OCc3ccc(C)cn3)cc2n1Cc1ccc(C)cc1)C(=O)O` [Example 71, 2-Ethyl-2-({4-fluoro-1-(4-methylbenzyl)-6-[(5-methylpyridin-2-yl)methoxy]-1H-benzimidazol-2-yl}methyl)butanoic acid as the TFA salt], the inhibition constant (Ki) on human FLAP (setting [2]) came to 49 nM. Further, in assay [1] (Homo sapiens), the IC50 was found to be 3350 nM.
Turning to `Cc1ccc(COc2cc(F)c3nc(CC4(C(=O)O)CCCC4)n(Cc4ccc(OC(F)(F)F)cc4)c3c2)nc1` [Example 72, 1-({4-Fluoro-6-[(5-methylpyridin-2-yl)methoxy]-1-[4-(trifluoromethoxy)benzyl]-1H-benzimidazol-2-yl}methyl)cyclopentanecarboxylic acid as the TFA salt], on human FLAP, the Ki amounted to 60 nM. Moreover, the half-maximal inhibitory concentration (IC50) in assay [1] is 1930 nM.
With `CCC(CC)(Cc1nc2ccc(OCc3ccn(C)n3)cc2n1Cc1ccc(OC(F)(F)F)cc1)C(=O)O` [Example 50, 2-Ethyl-2-({6-[(1-methyl-1H-pyrazol-3-yl)methoxy]-1-[4-(trifluoromethoxy)benzyl]-1H-benzimidazol-2-yl}methyl)butanoic acid], on human FLAP (setting [2]), the inhibition constant Ki was ~100 nM.
For `Cc1cccc(COc2ccc3nc(CC(C)(C)C(=O)O)n(Cc4ccc(Br)cc4)c3c2)n1` [Example 108, 3-{1-(4-Bromobenzyl)-6-[(6-methylpyridin-2-yl)methoxy]-1H-benzimidazol-2-yl}-2,2-dimethylpropanoic acid], the Ki at human FLAP (setting [2]) stood at 2240 nM.
On to `Cn1ccc(COc2ccc3nc([C@@H]4CCCC[C@@H]4C(=O)O)n(Cc4ccc(C#N)cc4)c3c2)n1` (racemic) [Example 47, racemic cis-2-{1-(4-Cyanobenzyl)-6-[(1-methyl-1H-pyrazol-3-yl)methoxy]-1H-benzimidazol-2-yl}cyclohexanecarboxylic acid as the TFA salt], for which the inhibition constant (Ki) on human FLAP (setting [2]) is ~490 nM.
On to `Cc1ccc(COc2ccc3nc([C@@H]4CCCC[C@@H]4C(=O)O)n(Cc4ccc(C#N)cc4)c3c2)nc1` (stereo in doubt) [Example 38, (1S*,2R*)-2-{1-(4-Cyanobenzyl)-6-[(5-methylpyridin-2-yl)methoxy]-1H-benzimidazol-2-yl}cyclohexanecarboxylic acid], for which the inhibition constant Ki at human FLAP (setting [2]) was > 10000 nM.
As to `Cc1ccc(COc2cc3c(cc2Cl)nc([C@H]2CCCC[C@H]2C(=O)O)n3Cc2ccc(OC(F)(F)F)cc2F)nc1` (racemic) [Example 110, racemic cis-2-{5-Chloro-1-[2-fluoro-4-(trifluoromethoxy)benzyl]-6-[(5-methylpyridin-2-yl)methoxy]-1H-benzimidazol-2-yl}cyclohexanecarboxylic acid as the HCl salt], at human FLAP (setting [2]), the Ki is 920 nM.
Consider `Cn1ccc(COc2ccc3nc(C4CCCC[C@@H]4C(=O)O)n(Cc4ccc(C#N)cc4)c3c2)n1` (mixture of isomers) [Example 48, racemic trans-2-{1-(4-Cyanobenzyl)-6-[(1-methyl-1H-pyrazol-3-yl)methoxy]-1H-benzimidazol-2-yl}cyclohexanecarboxylic acid as the TFA salt], for which, on human FLAP (setting [2]), the Ki was ~750 nM.
On to `CCC(CC)(Cc1nc2ccc(OCc3ccn(C)n3)cc2n1Cc1ccc(N2CCCCC2)cc1)C(=O)O` [Example 43, 2-Ethyl-2-({6-[(1-methyl-1H-pyrazol-3-yl)methoxy]-1-(4-piperidin-1-ylbenzyl)-1H-benzimidazol-2-yl}methyl)butanoic acid], for which the Ki on human FLAP (setting [2]) was ~940 nM.
In the case of `Cn1ccc(COc2ccc3nc(CC(C)(C)C(=O)O)n(Cc4ccc(Br)cc4)c3c2)n1` [Example 107, 3-{1-(4-Bromobenzyl)-6-[(1-methyl-1H-pyrazol-3-yl)methoxy]-1H-benzimidazol-2-yl}-2,2-dimethylpropanoic acid], on human FLAP (setting [2]), the Ki was found to be 430 nM.
Turning to `Cc1cccc(COc2ccc3nc([C@@H]4[C@H](C(=O)O)C4(C)C)n(Cc4ccc(Br)cc4)c3c2)n1` (racemic) [Example 133, racemic cis-3-{1-(4-Bromobenzyl)-6-[(6-methylpyridin-2-yl)methoxy]-1H-benzimidazol-2-yl}-2,2-dimethylcyclopropanecarboxylic acid], the Ki at human FLAP (setting [2]) is ~1500 nM.
